Experimental data: ChEMBL document CHEMBL4689842, “EUbOPEN Chemogenomics Library wave 1” (2021)

Legend:
Format in all cases: toxicity, cell-based
[1] = tested on: HEK-293T; assay: Incucyte cell viability with HEK293T; settings: human, 10 µM, compound concentration 10 uM
[2] = tested on: Fibroblast; assay: Incucyte cell viability with human fibroblast; settings: 10 µM, compound concentration 10 uM
[3] = tested on: U2OS; assay: Incucyte cell viability with U2OS; settings: human, 10 µM, compound concentration 10 uM
[4] = 0 h, replicate number 2, timepoint 0 hours
[5] = 6 h, replicate number 1, timepoint 6 hours
[6] = 12 h, replicate number 1, timepoint 12 hours
[7] = 18 h, replicate number 1, timepoint 18 hours
[8] = 24 h, replicate number 1, timepoint 24 hours
[9] = 0 h, replicate number 1, timepoint 0 hours
[10] = 6 h, replicate number 2, timepoint 6 hours
[11] = 12 h, replicate number 2, timepoint 12 hours
[12] = 24 h, replicate number 2, timepoint 24 hours
[13] = 18 h, replicate number 2, timepoint 18 hours
Note: filed as whole numbers so only -1 and 0 and 1 occur.

Structure (SMILES) | Growth Rate [1, 4] | Growth Rate [1, 5] | Growth Rate [1, 6] | Growth Rate [1, 7] | Growth Rate [1, 8] | Growth Rate [2, 9] | Growth Rate [2, 10] | Growth Rate [2, 11] | Growth Rate [3, 5] | Growth Rate [3, 6] | Growth Rate [3, 7] | Growth Rate [3, 13] | Growth Rate [3, 8] | Growth Rate [1, 10] | Growth Rate [1, 11] | Growth Rate [2, 6] | Growth Rate [2, 7] | Growth Rate [2, 8] | Growth Rate [3, 9] | Growth Rate [1, 9] | also measured
COc1cc(N2CCC(O)CC2)ccc1Nc1cc(Nc2ccccc2S(=O)(=O)C(C)C)c2cc[nH]c2n1 | 1 | 0 | 0 | 0 | 0 | 1 | 1 | 1 | 1 | 1 | 1 | 0 | 1 |  |  |  |  |  |  |  | Growth Rate [2, 4]: 0; Growth Rate [2, 12]: 1; Growth Rate [3, 12]: 0
COc1ccc(Br)cc1S(=O)(=O)NC(=O)/C=C/c1ccccc1Cc1ccc2ccccc2c1 | 0 | 0 | 0 | 0 | 0 | 1 | 1 |  |  |  | 1 |  | 1 | 1 | 1 | 1 | 0 | 0 | 0 |  | Growth Rate [1, 13]: 1; Growth Rate [1, 12]: 1; Growth Rate [2, 4]: 0; Growth Rate [2, 5]: 0; Growth Rate [2, 13]: 1; Growth Rate [2, 12]: 1; Growth Rate [3, 10]: 0; Growth Rate [3, 11]: 1; Growth Rate [3, 12]: 0
COc1ccc(CCc2nc3cc(-c4c(C)noc4C)ccc3n2C[C@H](C)N2CCOCC2)cc1Cl | 1 | 0 | 1 | 0 | 0 | 0 | 0 |  | 0 | 1 | 1 |  | 1 | 1 | 0 | 1 | 1 | 1 | 1 |  | Growth Rate [1, 13]: 1; Growth Rate [2, 5]: 1; Growth Rate [3, 4]: 0
CN1CCN(c2ccc(-c3cccc(CN4CCOCC4)c3)cc2NC(=O)c2c[nH]c(=O)cc2C(F)(F)F)CC1 | 1 | 0 | 0 | 1 | 1 |  | 0 | 0 | 1 | 0 | 0 | 1 | 1 |  |  | 1 | 1 | 1 | 0 |  | Growth Rate [2, 4]: 1; Growth Rate [3, 10]: 0; Growth Rate [3, 12]: 0
Cl.O=C(Cc1ccc(Cl)c(Cl)c1)N1CCCC[C@H]1CN1CCCC1 | 0 | 0 | 0 | 0 | 0 | 0 |  |  |  | 1 | 1 |  | 1 |  |  |  |  |  | 0 |  | Growth Rate [1, 13]: 1; Growth Rate [2, 4]: 1; Growth Rate [3, 10]: 1
CCN(Cc1ccc(Cl)cc1)c1ncc(C(=O)NCCCN2CCCC2=O)c(NC2CCCC2)n1 |  |  |  |  |  |  | 0 | 0 | 1 | 1 | 1 |  | 1 |  |  | 1 | 1 | 1 |  | 0 | Growth Rate [2, 4]: 0; Growth Rate [2, 5]: 1; Growth Rate [3, 4]: 0
CC(C)(C)c1ccc(C(=O)Nc2cn3cc(-n4ccnc4)ccc3n2)cc1.Cl.Cl | 1 | 0 | 0 | 0 | 0 | 0 |  |  | 1 | 1 | 1 |  | 1 |  |  | 1 | 1 | 1 | 1 |  | Growth Rate [3, 4]: 0
CCCCN(Cc1ccccc1)C(=O)c1ccc(S(=O)(=O)Nc2ccccc2)cc1 |  | 1 |  |  |  | 0 | 0 | 0 | 1 | 1 | 1 | 0 | 1 | 0 | 1 | 1 | 1 | 0 |  | 0 | Growth Rate [1, 12]: 1; Growth Rate [2, 4]: 1; Growth Rate [2, 13]: 0; Growth Rate [2, 12]: 1; Growth Rate [3, 12]: 0
COc1ccc2c(c1)O[C@H](c1ccc(OC)c(OC)c1)C[C@@H]2NC(=O)C1(c2ccc3c(c2)OC(F)(F)O3)CC1 [A-1596584] | 0 | 0 | 0 | 0 | 0 | 0 |  |  |  | 1 | 1 | 0 | 1 |  |  | 1 | 1 | 1 | 0 | 1 | Growth Rate [2, 13]: 0; Growth Rate [2, 12]: 0; Growth Rate [3, 10]: 0; Growth Rate [3, 11]: 0
COc1ccc2c(c1)O[C@@H](c1ccc(OC)c(OC)c1)C[C@H]2NC(=O)C1(c2ccc3c(c2)OC(F)(F)O3)CC1 [A-1596586] | 0 | 0 | 0 | 0 | 0 | 0 |  |  |  | 1 | 1 |  | 1 |  |  |  | 1 | 1 | 0 | 1 | 
O=C(N1CCS(=O)(=O)CC1)N1C[C@H](c2ccc(OC(F)(F)F)cc2)C[C@H](c2nc(C3CC3)no2)C1 [BAY-386] |  | 1 | 0 | 0 | 0 | 0 | 0 | 0 | 0 | 0 | 0 | 1 | 0 |  | 1 |  |  | 1 |  | 0 | Growth Rate [2, 13]: 0; Growth Rate [2, 12]: 0; Growth Rate [3, 4]: 0; Growth Rate [3, 10]: 1; Growth Rate [3, 11]: 1; Growth Rate [3, 12]: 1
NS(=O)(=O)c1cc(NC(=O)Cc2ccccc2)ccc1Oc1cccc(Cl)c1 [BAY-1797] |  | 0 | 0 | 0 | 0 | 0 |  | 1 | 0 | 1 | 0 | 1 | 0 | 1 | 1 |  |  | 1 |  | 0 | Growth Rate [2, 13]: 1; Growth Rate [3, 11]: 0; Growth Rate [3, 12]: 1
Cn1cc(Cl)c2c(Oc3c(F)cc(Nc4cc(Cl)nc(N)n4)cc3F)ccnc21 [BAY-4900] |  |  |  | 1 | 1 | 0 | 0 | 1 | 1 | 1 | 0 | 1 | 1 | 0 | 0 |  |  | 1 | 1 | 0 | Growth Rate [1, 13]: 0; Growth Rate [1, 12]: 0; Growth Rate [2, 13]: 1; Growth Rate [3, 4]: 0
O=C(O)[C@H]1[C@H](Cn2nnc3ccccc3c2=O)CC[C@@H]1C(=O)c1ccc(OCCC2CCOCC2)cc1 [BAY-7598] | 1 |  | 1 | 1 | 1 | 0 |  |  | 1 | 1 | 0 | 1 | 1 | 1 |  | 1 | 1 | 1 |  | 0 | Growth Rate [2, 5]: 1; Growth Rate [3, 4]: 0; Growth Rate [3, 11]: 0
C[C@H]1C[C@H]2[C@@H]3CCC4=CC(=O)C=C[C@]4(C)[C@@]3(Cl)[C@@H](O)C[C@]2(C)[C@@]1(O)C(=O)CO [BECLOMETHASONE] |  | 1 | 1 | 1 | 1 | 0 | 0 |  |  | 1 | 1 |  | 1 | 0 | 0 |  |  |  | 0 | 0 | Growth Rate [1, 13]: 0; Growth Rate [1, 12]: 0; Growth Rate [3, 10]: 0
